Measurements from ChEMBL document CHEMBL3507680, “University of Dundee, Gates Library screen for HepG2 cell viability”.

Assay: Human HepG2 cell viability assay in 384 well format
Type: toxicity, cell-based
Set-up: dose 125 nL, time 70.5 hour; cytotoxicity at 70.5 h: concentration not given beside the values
Details: HepG2 cells, read-out: Inhibition

Row | SMILES | cytotoxicity at 70.5 h
1 | Cc1cc2nc(C(C)C)cc(NCc3ccncc3)n2n1 | -7.5%
2 | CC1CCN(C(=O)C(C)N2CCc3[nH]nc(C(F)(F)F)c3C2)CC1 (stereo not drawn) | -8.79%
3 | CC(C(=O)N1CCC(Nc2cccnn2)CC1)n1cccn1 (stereo not drawn) | 20.4%
4 | Fc1ccc(-c2nc(CNC3CCc4ncnn4C3)cs2)cc1 (stereo not drawn) | 0.825%
5 | O=C(NCCN1CCOC1=O)c1ccc2sccc2c1 | -4.67%
6 | Cc1cc(CN2CCN(C(=O)CCc3ccco3)CC2)on1 | -9.48%
7 | CN(C(=O)CNc1ccc(C#N)cc1)C1CCN(c2ccccn2)CC1 | -10%
8 | CSCCC(=O)N1C[C@H](Nc2ccnc(C)n2)[C@@H](C(C)C)C1 | -23.4%
9 | CC(Cn1cncn1)NC(=O)NCC(C)(C)c1ccc(F)cc1 (stereo not drawn) | 1.47%
10 | COc1ccc(Cc2ncc3c(n2)CN(C(=O)CN(C)C)C3)cc1 | -8%
11 | CC(C)(C)c1cn(C2CCN(C(=O)c3cncnc3)CC2)nn1 | 18%
12 | Cc1cccnc1CC(C)N(C)Cc1cccs1 (stereo not drawn) | -13.2%
13 | CC(C)c1noc(C2CC(=O)N(CCN(C)C)C2)n1 (stereo not drawn) | -8.25%
14 | O=C(NC1CC1)[C@H]1COC[C@H]2CN(c3ncc(F)cn3)C[C@H]21 | -8.95%
15 | Cc1cc(N[C@H]2CN(CC(C)(C)N3CCOCC3)C[C@@H]2C2CC2)ncn1 | -15.4%
16 | Cc1cc(C)n(CCN2CCN(C(=O)c3ccccc3Br)CC2)n1 | -2.29%
17 | Cc1ccc(C(=O)NCCCS(C)(=O)=O)c(=O)[nH]1 | 15.4%
18 | CN(CC1(O)CCCC1)C(=O)c1cccc(Nc2cnccn2)c1 | -19.5%
19 | Cc1cc(C)c(CNC(=O)NC2CCOCC2)c(=O)[nH]1 | -12.6%
20 | CCc1nccn1C1CCCN(C(=O)c2cc3nc(C)ccc3o2)C1 (stereo not drawn) | -2.05%
21 | CCN1CCc2[nH]cnc2C12CCN(c1ccc(Cl)cn1)CC2 | -4.3%
22 | CC1CCC(NS(=O)(=O)CC(=O)Nc2ccc(N3CCCC3)cn2)CC1 (stereo not drawn) | -5.53%
23 | CN(C)CCN1C(=O)CCCC12CCCN(C(=O)c1cc[nH]n1)C2 (stereo not drawn) | -4.9%

Row | SMILES | cytotoxicity at 70.5 h
24 | CS(=O)(=O)N1CCN(c2ccnc(N3CCCCC3)n2)CC1 | -6.15%
25 | COCCNC(=O)c1nc2c(s1)CCCN2Cc1ccccc1 | -6.6%
26 | CC(=O)NC[C@@H]1C=C(C)[C@H](CC(=O)NCc2cccnc2)C[C@H]1C(C)C | 4.62%
27 | OCC(CO)N1CCC(c2nccnc2Nc2cnccn2)CC1 | -2.76%
28 | Cc1cc(C)nc(NC2CC(=O)N(C(C)(C)C)C2)n1 (stereo not drawn) | 7.77%
29 | CCc1ccc(C(COC)NC(=O)c2ccc(NC(C)=O)cc2)o1 (stereo not drawn) | -8.16%
30 | CC(C)c1nnsc1CNC(=O)C1CCCN(C(=O)N(C)C)C1 (stereo not drawn) | -11.2%
31 | CC(=O)N1[C@@H](C(=O)NCC2CC2)C[C@@H]2CN(Cc3nccs3)C[C@@H]21 | -9.23%
32 | Cc1csc(CNC(=O)NCC2(c3ccc4c(c3)OCO4)CC2)n1 | -2.06%
33 | COCCN1CCCC2(CCC(=O)N2Cc2cccnc2)C1 (stereo not drawn) | 28.9%
34 | CCOc1ncccc1CNC(=O)Nc1ccc(CC)cc1 | -7.83%
35 | COc1ccc(C2=CCN(C(=O)CN(C)Cc3ccco3)CC2)cc1 | -11.2%
36 | Cn1cccc1C(=O)N1CCC2(CCN(C(=O)c3cccnc3)C2)CC1 | 3.23%
37 | c1cc2c(cc1CN1CCN(Cc3noc(C4CC4)n3)CC1)OCO2 | -2.86%
38 | Cc1ccccc1-n1cc(CN(C)C(=O)CC2C(=O)NCCN2C)cn1 (stereo not drawn) | -2.44%
39 | CN(C)C(=O)CN1CCc2ncnc(N(C)C)c2CC1 | -6.04%
40 | CN(Cc1ccsc1)C(=O)c1cccc(F)c1 | -9.63%
41 | O=S(=O)(CCC1CCCO1)NCc1ncc(-c2ccccc2)o1 (stereo not drawn) | 5%
42 | CC(=O)N1CCC(Oc2ccc(Cl)cn2)CC1 | 0.563%
43 | CCc1nc(C2CCCN2C(=O)CCc2c(C)noc2Cl)no1 (stereo not drawn) | -3.77%
44 | Nc1nc2nc(C3CCCN(C(=O)c4cncs4)C3)ccc2s1 (stereo not drawn) | 0.556%
45 | O=C(NCC1CCC1)c1cccc(CN2CCS(=O)(=O)CC2)c1 | -16.2%
46 | Cc1ccc2nc(C(=O)N3CCCC[C@]4(C)NC(=O)CCC[C@H]34)cn2c1 | -4.04%

Row | SMILES | cytotoxicity at 70.5 h
47 | CNc1cccc(C2CCN(C(=O)c3cccnc3)CC2)n1 | -5.08%
48 | Cc1c(Cl)c(C(=O)N2CC(c3cccnc3)C2)nn1C | -1.27%
49 | NCc1n[nH]c(=O)n1-c1cccc(Cl)c1Cl | -3.71%
50 | Cc1cc(C)n(CCC(=O)N2CCC(c3nc(C(C)C)no3)CC2)n1 | -5.07%
51 | N#Cc1cccc(N2CC3(CCN(C(=O)C4CC=CC4)C3)CC2=O)c1 (stereo not drawn) | -9.81%
52 | CN(Cc1ccc2c(c1)OCCO2)Cc1nnnn1-c1ccccc1 | -17.2%
53 | CN1[C@H]2CC[C@@H]1CN(C(=O)c1nnc3n1CCCCC3)CC2 | -9.52%
54 | O=C1CCN(C(=O)CCc2cc(Br)cs2)CCN1 | -10.5%
55 | Cc1ccc(C(=O)N2CCc3ncnc(-c4cnn(C)c4)c3CC2)cn1 | -2.36%
56 | CCc1nc2n(n1)CCCC2NC(=O)Nc1ccc(SC)c(F)c1 (stereo not drawn) | -6.66%
57 | O=C(c1n[nH]c2c1CCN(Cc1nccs1)C2)N1CCCC1 | -7.39%
58 | Cc1nnc(NC(=O)CN2CCCC(Cn3cncn3)C2)s1 (stereo not drawn) | -1.69%
59 | CCNC(=O)N1CCN(Cc2nc3ccccc3[nH]2)[C@@H]2CS(=O)(=O)C[C@@H]21 | -9.34%
60 | Cn1ncc2c(NCC3CCS(=O)(=O)C3)nc(C3CCCC3)nc21 (stereo not drawn) | -3.73%
61 | CNCC(=O)N1CC(c2cc(Nc3nc(C)cs3)nc(C)n2)C1 | -12.3%
62 | COCCOCC(=O)N1C[C@@H]2CC[C@H](Oc3ccccc3)[C@@H]2C1 | -3.37%
63 | CCCn1nccc1C(=O)N1CCN(C(=O)C2CC2)[C@@H]2CS(=O)(=O)C[C@@H]21 | 11.1%
64 | CSC(C)(C)CNC(=O)NC1CCN(C)CC1 | -3.38%
65 | CN1CCOCC12CCN(Cc1nccs1)CC2 | 3.99%
66 | O=C(NCCCOc1cccnc1)c1cn(Cc2ccccc2F)nn1 | -12.2%
67 | CC(C)OCCS(=O)(=O)N1CCCC1c1cccc(N(C)C)c1 (stereo not drawn) | -5.82%
68 | Cc1cccc(CNC2CCN(CCc3ccncc3)CC2)c1C | -3.09%
69 | CN(Cc1ccon1)C(=O)CN1C(=O)OC(C)(C)C1=O | -11.5%

Row | SMILES | cytotoxicity at 70.5 h
70 | c1cnn(CC2CCN(c3nc(C4CC4)nc4c3CCNCC4)CC2)c1 | -0.96%
71 | Cc1cccc(S(=O)(=O)N2CSCC2C(=O)NC(C)(C)C)c1 (stereo not drawn) | -3.48%
72 | COc1ccc(CC(=O)N2CCC(c3n[nH]c(C4CC4)n3)CC2)cc1 | 2.82%
73 | Cc1cc(C)c(C(=O)N2CCOCC2c2c(C)nn(C)c2C)o1 (stereo not drawn) | -12.3%
74 | Cn1cnnc1C1CCCN(C(=O)c2cc3ccccc3[nH]2)C1 (stereo not drawn) | -11.2%
75 | Cn1c(C2CCCCN2C(=O)CN2CCCC2=O)nc2ccccc21 (stereo not drawn) | 21.3%
76 | CCc1ncc(CN2CCC(Oc3ccccc3OC)CC2)cn1 | -0.00137%
77 | CC(C)COCC(NC(=O)c1ccncc1)c1ccco1 (stereo not drawn) | -4.28%
78 | c1cnn(C2CN(c3ncnc4[nH]ccc34)C2)c1 | -0.76%
79 | CCC1CN(Cc2nc(C(C)C)no2)CCC(=O)N1Cc1ccccc1 (stereo not drawn) | 22.7%
80 | Cc1ncc(S(=O)(=O)N(CC(C)C)c2cccc(O)c2)s1 | -1.45%
81 | COc1ccc(C)cc1CN1CCn2cccc2C1C (stereo not drawn) | -1.19%
82 | Cc1csc(C2(NC(=O)NCCN3CCOCC3)CCCC2)n1 | -7.84%
83 | CN(Cc1cn2c(n1)CN(CC1CCOC1)CC2)Cc1ccco1 (stereo not drawn) | 1.38%
84 | Cc1nc(C)c(C(=O)N2Cc3cc(F)ccc3CC2C)o1 (stereo not drawn) | -3.47%
85 | CCN(C)S(=O)(=O)N1CCCC(c2nc(-c3ccccc3)c[nH]2)C1 (stereo not drawn) | 14.3%
86 | Cc1nc(Nc2ccc(Cl)cn2)sc1C(=O)NCCCN1CCCCC1 | -3.37%
87 | CCc1noc(C(C)N2CCOCC2)n1 (stereo not drawn) | 3.88%
88 | Cc1cnc(C)c(N2CCN(CCCc3ccncc3)CC2)n1 | 6.37%
89 | CCC(=O)N1CCCC(c2nc(N(C)C)ncc2-c2ccc(F)cc2)C1 (stereo not drawn) | 3.25%
90 | Cn1cccc1CNC(=O)CCCc1nnc2ccccn12 | -3.22%
91 | CCc1ccc(C(=O)N2C[C@@H]3COC[C@@H](C(=O)NC)[C@@H]3C2)cc1 | -0.591%
92 | CC1Cc2ccccc2N1C(=O)Cn1nc(-c2cccs2)cc(N)c1=O (stereo not drawn) | -3.41%

Row | SMILES | cytotoxicity at 70.5 h
93 | Cc1ccc(CNc2nc(O)cc(C3CC(=O)N(C)C3)n2)cc1 (stereo not drawn) | -4.28%
94 | CS(=O)(=O)NC[C@H]1Cn2c(-c3ccc4c(c3)OCCO4)cnc2CO1 | -13.2%
95 | COCCCNc1c(-c2ccccc2)c(=O)c1=O | -8.63%
96 | CCn1c(CN2CCOC(Cn3cccn3)C2)nc2c(F)cccc21 (stereo not drawn) | -3.89%
97 | Cc1ccc(F)c(S(=O)(=O)NCCc2nnc[nH]2)c1 | 15.4%
98 | Cn1c(CN2CCOCC2)cc(=O)c(O)c1CN1CCCCC1 | -4.64%
99 | Cc1ccc(C(=O)Nc2ccc(OC3CCN(C)CC3)cc2)c(C)c1 | -5.87%
100 | O=C(CN1CCOC(Cn2cccn2)C1)Nc1nncs1 (stereo not drawn) | 34.7%
101 | CN1CCC(Cc2cccc(-c3cc(F)ccc3C(=O)O)n2)CC1 | -4.18%
102 | CCOC(=O)CCCc1ccc2c(c1)CC(=O)N2 | -18.2%
103 | CCSCCC(C)N(C)C(=O)c1ccc(C)o1 (stereo not drawn) | -1.62%
104 | c1cnn(CC2CN(Cc3nc(-c4ccsc4)no3)CCO2)c1 (stereo not drawn) | -16.6%
105 | CCCn1cc(C(=O)NCCC(=O)NC2CCCCC2)c(C)n1 | -4.38%
106 | CC(=O)N1CCCC(C(=O)NCCc2csc(-c3ccncc3)n2)C1 (stereo not drawn) | -5.2%
107 | Cc1nc(CN2CCCN(CCOc3ccc(C#N)cc3)CC2)no1 | -0.262%
108 | Cc1nc[nH]c1CN(Cc1ccccc1)C1CC(C)(C)NC(C)(C)C1 | 4.53%
109 | CC(C)S(=O)(=O)C(C)C(=O)NCc1ccccc1COc1ccccc1 (stereo not drawn) | -11%
110 | Cc1ccnc(NC(=O)c2cc(C)oc2C)c1 | 4.63%
111 | COc1ccc(CN2C[C@@H](OCc3ccccn3)[C@H]3COC[C@H]32)cc1 | -23.2%
112 | COc1ccc(C(=O)N2C[C@@H](O)[C@H](NCc3cnc(C)cn3)C2)cc1 | 22.1%
113 | Cc1oc(C(C)C)cc1C(=O)N1CCN(c2cnn(C)c(=O)c2)CC1 | -3.48%
